Measurements reported in PubChem BioAssay AID1259407 (Chemical Carcinogenesis Research Information System (CCRIS), 2018).
Active and inactive are the calls of the source. How the calls were made is not given here.

System: CCRIS mutagenicity, Ames/micronucleus/aberration tests
Assay: CCRIS mutagenicity studies

Measured: mutagenic call

COc1cc2c(c3oc(=O)c4c(c13)CCC4=O)[C@@H]1C=CO[C@@H]1O2
active: End Point: IN VITRO MICRONUCLEUS, Test System: AHH-1 CELLS, Metabolic Activation: NONE active; positive | End Point: IN VITRO MICRONUCLEUS, Test System: MCL-5 CELLS, Metabolic Activation: NONE active; positive | Test System: AMES SALMONELLA TYPHIMURIUM, Strain/Indicator: TA98, Metabolic Activation: EPITHELIAL CELL-MEDIATED, AROCLOR 1254, Method: PREINCUBATION active; positive | Test System: AMES SALMONELLA TYPHIMURIUM, Strain/Indicator: TA98, Metabolic Activation: EPITHELIAL CELL-MEDIATED, NADPH, Method: PREINCUBATION active; positive | Test System: AMES SALMONELLA TYPHIMURIUM, Strain/Indicator: TA98, Metabolic Activation: EPITHELIAL CELL-MEDIATED, Method: PREINCUBATION active; positive | Test System: AMES SALMONELLA TYPHIMURIUM, Strain/Indicator: TA98, Metabolic Activation: HAMSTER, LIVER, S-9, Method: MICROSUSPENSION active; positive | Test System: AMES SALMONELLA TYPHIMURIUM, Strain/Indicator: TA98, Metabolic Activation: HAMSTER, TRACHEA, S-9, Method: MICROSUSPENSION active; positive | Test System: AMES SALMONELLA TYPHIMURIUM, Strain/Indicator: TA98, Metabolic Activation: HUMAN LIVER, S-9, Method: STANDARD PLATE active; positive | Test System: AMES SALMONELLA TYPHIMURIUM, Strain/Indicator: TA98, Metabolic Activation: HUMAN, LIVER, S-9, Method: STANDARD PLATE active; positive | Test System: AMES SALMONELLA TYPHIMURIUM, Strain/Indicator: TA98, Metabolic Activation: KUPFFER CELL-MEDIATED, AROCLOR 1254, Method: PREINCUBATION active; positive | Test System: AMES SALMONELLA TYPHIMURIUM, Strain/Indicator: TA98, Metabolic Activation: KUPFFER CELL-MEDIATED, NADPH, Method: PREINCUBATION active; positive | Test System: AMES SALMONELLA TYPHIMURIUM, Strain/Indicator: TA98, Metabolic Activation: KUPFFER CELL-MEDIATED, Method: PREINCUBATION active; positive | Test System: AMES SALMONELLA TYPHIMURIUM, Strain/Indicator: TA98, Metabolic Activation: NONE, Method: MICROSUSPENSION active; positive | Test System: AMES SALMONELLA TYPHIMURIUM, Strain/Indicator: TA98, Metabolic Activation: NONE, Method: STANDARD PLATE active; positive | Test System: AMES SALMONELLA TYPHIMURIUM, Strain/Indicator: TA98, Metabolic Activation: PARENCHYMAL CELL-MEDIATED, AROCLOR 1254, Method: PREINCUBATION active; positive | Test System: AMES SALMONELLA TYPHIMURIUM, Strain/Indicator: TA98, Metabolic Activation: PARENCHYMAL CELL-MEDIATED, NADPH, Method: PREINCUBATION active; positive | Test System: AMES SALMONELLA TYPHIMURIUM, Strain/Indicator: TA98, Metabolic Activation: RABBIT, LIVER, S-9, Method: MICROSUSPENSION active; positive | Test System: AMES SALMONELLA TYPHIMURIUM, Strain/Indicator: TA98, Metabolic Activation: RABBIT, LUNG, S-9, Method: MICROSUSPENSION active; positive | Test System: AMES SALMONELLA TYPHIMURIUM, Strain/Indicator: TA98, Metabolic Activation: RABBIT, TRACHEA, S-9, Method: MICROSUSPENSION active; positive | Test System: AMES SALMONELLA TYPHIMURIUM, Strain/Indicator: TA98, Metabolic Activation: RAT LIVER S-9, DELOR 103, Method: STANDARD PLATE active; positive | Test System: AMES SALMONELLA TYPHIMURIUM, Strain/Indicator: TA98, Metabolic Activation: RAT LIVER S-9, DELOREM 103, Method: STANDARD PLATE active; positive | Test System: AMES SALMONELLA TYPHIMURIUM, Strain/Indicator: TA98, Metabolic Activation: RAT, LIVER, MICROSOMES, PHENOBARBITAL, Method: STANDARD PLATE active; positive | Test System: AMES SALMONELLA TYPHIMURIUM, Strain/Indicator: TA98, Metabolic Activation: RAT, LIVER, S-9, ACRYLAMIDE, Method: STANDARD PLATE active; positive | Test System: AMES SALMONELLA TYPHIMURIUM, Strain/Indicator: TA98, Metabolic Activation: RAT, LIVER, S-9, AROCLOR 1254, Method: PREINCUBATION active; positive | Test System: AMES SALMONELLA TYPHIMURIUM, Strain/Indicator: TA98, Metabolic Activation: RAT, LIVER, S-9, AROCLOR 1254, Method: STANDARD PLATE active; positive | Test System: AMES SALMONELLA TYPHIMURIUM, Strain/Indicator: TA98, Metabolic Activation: RAT, LIVER, S-9, PHENOBARBITAL, Method: STANDARD PLATE active; positive | Test System: AMES SALMONELLA TYPHIMURIUM, Strain/Indicator: TA98, Metabolic Activation: RAT, LIVER, S-9, Method: MICROSUSPENSION active; positive | Test System: AMES SALMONELLA TYPHIMURIUM, Strain/Indicator: TA100, Metabolic Activation: HUMAN LIVER, S-9, Method: STANDARD PLATE active; positive | Test System: AMES SALMONELLA TYPHIMURIUM, Strain/Indicator: TA100, Metabolic Activation: HUMAN, LIVER, S-9, Method: STANDARD PLATE active; positive | Test System: AMES SALMONELLA TYPHIMURIUM, Strain/Indicator: TA100, Metabolic Activation: HUMAN, PLACENTAL MICROSOMES, Method: PREINCUBATION active; positive
inactive: Test System: AMES SALMONELLA TYPHIMURIUM, Strain/Indicator: TA98, Metabolic Activation: HAMSTER, LUNG, S-9, Method: MICROSUSPENSION inactive; negative | Test System: AMES SALMONELLA TYPHIMURIUM, Strain/Indicator: TA98, Metabolic Activation: NONE, Method: PREINCUBATION inactive; negative | Test System: AMES SALMONELLA TYPHIMURIUM, Strain/Indicator: TA98, Metabolic Activation: PARENCHYMAL CELL-MEDIATED, Method: PREINCUBATION inactive; negative | Test System: AMES SALMONELLA TYPHIMURIUM, Strain/Indicator: TA98, Metabolic Activation: RAT, LUNG, S-9, Method: MICROSUSPENSION inactive; negative | Test System: AMES SALMONELLA TYPHIMURIUM, Strain/Indicator: TA98, Metabolic Activation: RAT, TRACHEA, S-9, Method: MICROSUSPENSION inactive; negative
